This passage reports Ki and Inhibition type results from PMC10464555 (Journal of Enzyme Inhibition and Medicinal Chemistry, 2023).

The target in the assay is T1, sEH enzyme (Homo sapiens, UniProt P34913).
T1 sequence (P34913 1-555): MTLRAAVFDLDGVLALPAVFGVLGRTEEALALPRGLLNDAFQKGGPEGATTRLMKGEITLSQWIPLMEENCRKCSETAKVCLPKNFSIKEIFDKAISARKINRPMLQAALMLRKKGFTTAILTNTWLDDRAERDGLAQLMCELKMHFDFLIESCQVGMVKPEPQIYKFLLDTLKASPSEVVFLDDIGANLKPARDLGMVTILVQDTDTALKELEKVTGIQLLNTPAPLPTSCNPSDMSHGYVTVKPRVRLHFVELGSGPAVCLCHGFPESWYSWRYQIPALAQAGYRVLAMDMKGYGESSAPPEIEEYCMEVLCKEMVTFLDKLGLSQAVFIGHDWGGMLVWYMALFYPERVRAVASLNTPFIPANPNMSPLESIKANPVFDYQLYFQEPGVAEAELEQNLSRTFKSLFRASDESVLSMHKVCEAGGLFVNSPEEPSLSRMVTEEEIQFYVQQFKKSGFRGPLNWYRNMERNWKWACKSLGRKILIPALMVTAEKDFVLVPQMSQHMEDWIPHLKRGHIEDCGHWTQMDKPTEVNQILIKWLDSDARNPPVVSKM
Kind of assay: sEH enzyme kinetics. It counts as biochemical. To be noted: for Ki: Ki (μM), Dixon plots; for Inhibition type: Lineweaver–Burk plots.

In general, Ki refers to the equilibrium dissociation constant of an inhibitor or competing ligand from its target. A higher Ki goes with lower affinity. Regarding `O=C(CCCCCCCCc1ccc(O)cc1)c1c(O)cccc1O` [Compound 19, malabaricone B], the Ki was 20.9 µM and the Inhibition type entry was “Competitive”.
The matching figures for `O=C(CCCCCCCCc1ccc(O)c(O)c1)c1c(O)cccc1O` [Compound 20, malabaricone C]: 11.1 µM and “Competitive”.
